According to PMC10795512 (Cell reports. Physical science, 2023):
Where no end group is shown, it is not given here.

What was measured:
E. coli ATCC 11775 = test: MIC, broth microdilution; assay type: cell-based, Escherichia coli; conditions: LB broth, 5 × 10^5 CFU mL^−1, 24 h at 37°C, OD 600 nm, three replicates
S. aureus ATCC 12600 = test: MIC, broth microdilution; assay type: cell-based, Staphylococcus aureus; conditions: LB broth, 5 × 10^5 CFU mL^−1, 24 h at 37°C, OD 600 nm, three replicates
P. aeruginosa PAO1 [1] = test: MIC, broth microdilution; assay type: cell-based, Pseudomonas aeruginosa; conditions: LB broth, 5 × 10^5 CFU mL^−1, 24 h at 37°C, OD 600 nm, three replicates
P. aeruginosa PA14 = test: MIC, broth microdilution; assay type: cell-based, Pseudomonas aeruginosa; conditions: LB broth, 5 × 10^5 CFU mL^−1, 24 h at 37°C, OD 600 nm, three replicates
P. aeruginosa PAO1 [2] = test: Synergy; assay type: cell-based, Pseudomonas aeruginosa; conditions: checkerboard; for FICI, combined with PMB: 2- to 0.03-fold MIC, 24 h at 37°C, three replicates; for FICI, WT1 and WT2 in combination: different concentrations
human erythrocytes = conditions: at a concentration of 10^−4 mol L^−1; cited from earlier work
mouse erythrocytes = conditions: at a concentration of 10^−4 mol L^−1; cited from earlier work
[3] = test system: human embryonic kidney (HEK) cells (ATCC HEK293T); test: Cytotoxicity, XTT assay; assay type: cell-based
[4] = test system: primary human keratinocytes; test: Cytotoxicity, XTT assay; assay type: cell-based; conditions: for toxicity: at the highest concentration tested, 64 μmol L^−1, 24 h
[5] = test system: E. coli JW2703 (hypermutant strain) ΔmutS::kan; test: Resistance development assay; assay type: cell-based, Escherichia coli; conditions: over the same period (20 days)

Row | Substance | MIC (E. coli ATCC 11775) | MIC (S. aureus ATCC 12600) | MIC (P. aeruginosa PAO1 [1]) | MIC (P. aeruginosa PA14) | also measured
1 | LKLLGIVKKVLGAI-NH2 [WT2, reference compound] | 16 µM | 32 µM | 32 µM | 64 µM | FICI, combined with PMB (P. aeruginosa PAO1 [2]): 0.5; FICI, WT1 and WT2 in combination (P. aeruginosa PAO1 [2]): 0.7; hemolytic activity (human erythrocytes): hemolytic activity; hemolytic activity (mouse erythrocytes): hemolytic activity
2 | LKLMGIVKKVLAAL-NH2 [A12–1] | 2 µM | 2 µM |  |  | 
3 | LKLLGIVKKVLGKI-NH2 [K13–2] | 4 µM |  | 4 µM | 16 µM | toxicity ([3]; any of the concentrations tested (1 to 64 μmol L^−1), 24 h): no toxicity; toxicity [4]: low toxicity
4 | LKLMGIVKKVLGAL-NH2 [WT1, reference compound] | 8 µM | 16 µM | 32 µM | 32 µM | FICI, combined with PMB (P. aeruginosa PAO1 [2]): 0.7; FICI, WT1 and WT2 in combination (P. aeruginosa PAO1 [2]): 0.7; hemolytic activity (human erythrocytes): hemolytic activity; hemolytic activity (mouse erythrocytes): hemolytic activity
5 | LKLLGIVKKKLGAI-NH2 [K10–2] | 4 µM | 8 µM | 4 µM | 8 µM | toxicity ([3]; at 16 μmol L^−1, 24 h): no toxicity; cell viability remaining ([4]; at 8 μmol L^−1, 24 h): 92%
6 | LKLMGIVKKVLGKL-NH2 [K13–1] | 4 µM | 128 µM | 8 µM | 16 µM | FICI, combined with PMB (P. aeruginosa PAO1 [2]): 0.6; toxicity ([3]; at 4-fold MIC, 24 h): toxic; toxicity [4]: low toxicity
7 | LKLAGIVKKVLGAL-NH2 [A4–1] | 4 µM | 8 µM |  |  | 
8 | LKLLGIVKKVLAAI-NH2 [A12–2] | 4 µM | 2 µM |  |  | 
9 | polymyxin B [PMB] |  |  |  |  | change of MIC during resistance assay [5]: did not vary significantly
10 | LKLMAIVKKVLGAL-NH2 [A5–1] | 4 µM | 4 µM |  |  | 
11 | LKLLAIVKKVLGAI-NH2 [A5–2] | 4 µM | 4 µM |  |  | 
12 | AKLMGIVKKVLGAL-NH2 [A1–1] | 4 µM | 8 µM | 16 µM | 16 µM | 
